System: 521955-158-R2-J5-PDC complex spheroids, viability
Assay: Anticancer human tumor 521955-158-R2-J5-PDC patient-derived pancreatic carcinoma cell line growth inhibition [RAS]
Settings: for IC50: curve of first compound; for viability, T/C: stronger effect = lower value
In short: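 Multi-cell-type spheroids: tumor cells plus HUVEC endothelial cells and mesenchymal stem cells. RAS-pathway inhibitors were combined with targeted agents, each dosed in half-log steps down from clinical Cmax, or from 10 microM when Cmax was unknown.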

[1] = second compound 0.000949 µM, first compound 0.0316 µM
[2] = second compound 0.000949 µM, first compound 0.1 µM
[3] = second compound 0.000949 µM, first compound 0.316 µM
[4] = second compound 0.000949 µM, first compound 1 µM
[5] = second compound 0.000949 µM, first compound 3.16 µM
[6] = second compound 0.000949 µM, first compound 10 µM
[7] = second compound 0.003 µM, first compound 0.0316 µM
[8] = second compound 0.003 µM, first compound 0.1 µM
[9] = second compound 0.003 µM, first compound 0.316 µM
[10] = second compound 0.003 µM, first compound 1 µM
[11] = second compound 0.003 µM, first compound 3.16 µM
[12] = second compound 0.003 µM, first compound 10 µM
[13] = second compound 0.00949 µM, first compound 0.0316 µM
[14] = second compound 0.00949 µM, first compound 0.1 µM
[15] = second compound 0.00949 µM, first compound 0.316 µM
[16] = second compound 0.00949 µM, first compound 1 µM
[17] = second compound 0.00949 µM, first compound 3.16 µM
[18] = second compound 0.00949 µM, first compound 10 µM
[19] = second compound 0.03 µM, first compound 0.0316 µM
[20] = second compound 0.03 µM, first compound 0.1 µM
[21] = second compound 0.03 µM, first compound 0.316 µM
[22] = second compound 0.03 µM, first compound 1 µM
[23] = second compound 0.03 µM, first compound 3.16 µM
[24] = second compound 0.03 µM, first compound 10 µM
[25] = second compound 0.0949 µM, first compound 0.0316 µM
[26] = second compound 0.0949 µM, first compound 0.1 µM
[27] = second compound 0.0949 µM, first compound 0.316 µM
[28] = second compound 0.0949 µM, first compound 1 µM
[29] = second compound 0.0949 µM, first compound 3.16 µM
[30] = second compound 0.0949 µM, first compound 10 µM
[31] = second compound 0.3 µM, first compound 0.0316 µM
[32] = second compound 0.3 µM, first compound 0.1 µM
[33] = second compound 0.3 µM, first compound 0.316 µM
[34] = second compound 0.3 µM, first compound 1 µM
[35] = second compound 0.3 µM, first compound 3.16 µM
[36] = second compound 0.3 µM, first compound 10 µM
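Also: compound exposure lasted seven days before the viability read.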
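For viability, T/C in this document: spheroids also contain HUVEC endothelial cells and mesenchymal stem cells as stroma.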

C[C@@H](NC(=O)c1ncnc(N)c1Cl)c1ncc(C(=O)Nc2cc(C(F)(F)F)c(Cl)cn2)s1 + CCn1c(-c2cc(N3CCN(C)CC3)cnc2C(C)OC)c2c3cc(ccc31)-c1csc(n1)CC(NC(=O)C1CC1C)C(=O)N1CCCC(N1)C(=O)OCC(C)(C)C2
IC50 (second compound 0.000949 µM): < 31.6 nM
IC50 (second compound 0.003 µM): < 31.6 nM
IC50 (second compound 0.00949 µM): < 31.6 nM
IC50 (second compound 0.03 µM): < 31.6 nM
IC50 (second compound 0.0949 µM): < 31.6 nM
IC50 (second compound 0.3 µM): < 31.6 nM
viability, T/C [1]: 49.2%
viability, T/C [2]: 50.3%
viability, T/C [3]: 50.4%
viability, T/C [4]: 48.9%
viability, T/C [5]: 51.3%
viability, T/C [6]: 49%
viability, T/C [7]: 39.9%
viability, T/C [8]: 39.5%
viability, T/C [9]: 45.2%
viability, T/C [10]: 38.9%
viability, T/C [11]: 47.9%
viability, T/C [12]: 40.7%
viability, T/C [13]: 39.9%
viability, T/C [14]: 34.2%
viability, T/C [15]: 40.8%
viability, T/C [16]: 37%
viability, T/C [17]: 36.4%
viability, T/C [18]: 38.7%
viability, T/C [19]: 26.9%
viability, T/C [20]: 29.7%
viability, T/C [21]: 31%
viability, T/C [22]: 22.4%
viability, T/C [23]: 29.2%
viability, T/C [24]: 21.6%
viability, T/C [25]: 11.8%
viability, T/C [26]: 12.6%
viability, T/C [27]: 18.7%
viability, T/C [28]: 16.8%
viability, T/C [29]: 17.8%
viability, T/C [30]: 17.8%
viability, T/C [31]: 11.7%
viability, T/C [32]: 13.2%
viability, T/C [33]: 13.5%
viability, T/C [34]: 12.4%
viability, T/C [35]: 15.2%
viability, T/C [36]: 12.3%

CC(C)n1nc(-c2ccc3oc(N)nc3c2)c2c(N)ncnc21 + C#Cc1c(F)ccc2cc(O)cc(-c3ncc4c(N5CC6CCC(C5)N6)nc(OCC56CCCN5CC(F)C6)nc4c3F)c12
IC50 (second compound 0.0316 µM): 1.97 nM
IC50 (second compound 0.1 µM): 1.08 nM
IC50 (second compound 0.316 µM): < 0.316 nM
IC50 (second compound 1 µM): < 0.316 nM
IC50 (second compound 3.16 µM): < 0.316 nM
IC50 (second compound 10 µM): < 0.316 nM
viability, T/C (second compound 0.0316 µM, first compound 0.000316 µM): 83.6%
viability, T/C (second compound 0.0316 µM, first compound 0.001 µM): 58.1%
viability, T/C (second compound 0.0316 µM, first compound 0.00316 µM): 46.7%
viability, T/C (second compound 0.0316 µM, first compound 0.01 µM): 27.2%
viability, T/C (second compound 0.0316 µM, first compound 0.0316 µM): 20.3%
viability, T/C (second compound 0.0316 µM, first compound 0.1 µM): 16.5%
viability, T/C (second compound 0.1 µM, first compound 0.000316 µM): 51.2%
viability, T/C (second compound 0.1 µM, first compound 0.001 µM): 51.9%
viability, T/C (second compound 0.1 µM, first compound 0.00316 µM): 40.8%
viability, T/C (second compound 0.1 µM, first compound 0.01 µM): 22.4%
viability, T/C (second compound 0.1 µM, first compound 0.0316 µM): 12.6%
viability, T/C (second compound 0.1 µM, first compound 0.1 µM): 12.4%
viability, T/C (second compound 0.316 µM, first compound 0.000316 µM): 42.1%
viability, T/C (second compound 0.316 µM, first compound 0.001 µM): 56.1%
viability, T/C (second compound 0.316 µM, first compound 0.00316 µM): 40.2%
viability, T/C (second compound 0.316 µM, first compound 0.01 µM): 24.4%
viability, T/C (second compound 0.316 µM, first compound 0.0316 µM): 13.6%
viability, T/C (second compound 0.316 µM, first compound 0.1 µM): 8.05%
viability, T/C (second compound 1 µM, first compound 0.000316 µM): 49.6%
viability, T/C (second compound 1 µM, first compound 0.001 µM): 45.1%
viability, T/C (second compound 1 µM, first compound 0.00316 µM): 40.4%
viability, T/C (second compound 1 µM, first compound 0.01 µM): 22.1%
viability, T/C (second compound 1 µM, first compound 0.0316 µM): 13.7%
viability, T/C (second compound 1 µM, first compound 0.1 µM): 8.36%
viability, T/C (second compound 3.16 µM, first compound 0.000316 µM): 42.6%
viability, T/C (second compound 3.16 µM, first compound 0.001 µM): 44.6%
viability, T/C (second compound 3.16 µM, first compound 0.00316 µM): 33.2%
viability, T/C (second compound 3.16 µM, first compound 0.01 µM): 21.3%
viability, T/C (second compound 3.16 µM, first compound 0.0316 µM): 11%
viability, T/C (second compound 3.16 µM, first compound 0.1 µM): 7.2%
viability, T/C (second compound 10 µM, first compound 0.000316 µM): 38.9%
viability, T/C (second compound 10 µM, first compound 0.001 µM): 33.8%
viability, T/C (second compound 10 µM, first compound 0.00316 µM): 21.3%
viability, T/C (second compound 10 µM, first compound 0.01 µM): 17%
viability, T/C (second compound 10 µM, first compound 0.0316 µM): 10.4%
viability, T/C (second compound 10 µM, first compound 0.1 µM): 7.51%

CC(=O)OC12COC1CC(O)C1(C)C(=O)C(O)C3=C(C)C(OC(=O)C(O)C(NC(=O)OC(C)(C)C)c4ccccc4)CC(O)(C(OC(=O)c4ccccc4)C21)C3(C)C (stereo unspecified) + CCn1c(-c2cc(N3CCN(C)CC3)cnc2C(C)OC)c2c3cc(ccc31)-c1csc(n1)CC(NC(=O)C1CC1C)C(=O)N1CCCC(N1)C(=O)OCC(C)(C)C2
IC50 (second compound 0.000949 µM): < 31.6 nM
IC50 (second compound 0.003 µM): < 31.6 nM
IC50 (second compound 0.00949 µM): < 31.6 nM
IC50 (second compound 0.03 µM): < 31.6 nM
IC50 (second compound 0.0949 µM): < 31.6 nM
IC50 (second compound 0.3 µM): < 31.6 nM
viability, T/C [1]: 19.7%
viability, T/C [2]: 23.3%
viability, T/C [3]: 20.3%
viability, T/C [4]: 24.3%
viability, T/C [5]: 29.3%
viability, T/C [6]: 30.7%
viability, T/C [7]: 25.7%
viability, T/C [8]: 21.4%
viability, T/C [9]: 23.5%
viability, T/C [10]: 28.9%
viability, T/C [11]: 23.7%
viability, T/C [12]: 26.8%
viability, T/C [13]: 20.8%
viability, T/C [14]: 21.7%
viability, T/C [15]: 20.4%
viability, T/C [16]: 19.8%
viability, T/C [17]: 18.9%
viability, T/C [18]: 16.6%
viability, T/C [19]: 12.9%
viability, T/C [20]: 12.8%
viability, T/C [21]: 11.8%
viability, T/C [22]: 16.9%
viability, T/C [23]: 12.7%
viability, T/C [24]: 9.64%
viability, T/C [25]: 7.98%
viability, T/C [26]: 9.42%
viability, T/C [27]: 11.9%
viability, T/C [28]: 8.27%
viability, T/C [29]: 12.1%
viability, T/C [30]: 7.89%
viability, T/C [31]: 7.22%
viability, T/C [32]: 8.9%
viability, T/C [33]: 7.91%
viability, T/C [34]: 11.6%
viability, T/C [35]: 10.6%
viability, T/C [36]: 7.75%
